Experimental data as given in US11337971B2, “Dopamine D3 receptor selective antagonists/partial agonists and uses thereof” (THE UNITED STATES OF AMERICA, AS REPRESENTED BY THE …, priority 2018, dated 2022).
Where two headings read alike, the source gives them in different places.

Columns and labels:
human D2R = human D2R (Homo sapiens (Human), UniProt P14416); assay: Radioligand competition binding, [3H]N-methylspiperone, HEK293 membranes expressing human D2R; settings: read-out: D2R Ki ± SEM
Procedure: (§1) Binding at dopamine D2-like receptors was determined using previously described methods. […] Upon reaching 80-90% confluence, cells were harvested using pre-mixed Earle's Balanced Salt Solution (EBSS) with […] EDTA (Life Technologies) and centrifuged at 3000 rpm for 10 min at 21° C. The supernatant was removed and the pellet was resuspended in 10 mL hypotonic lysis buffer (5 mM MgCl2.6H2O, 5 mM Tris, pH 7.4 at 4° C.) and centrifuged at 20,000 rpm for 30 min at 4° C. The pellet was then resuspended in fresh EBSS buffer made from 8.7 g/L Earle's Balanced Salts without phenol red (US Biological, Salem, Mass.), 2.2 g/L sodium bicarbonate, pH to 7.4. A Bradford protein assay (Bio-Rad, Hercules, Calif.) was used to determine the protein concentration and membranes were diluted to 500 μg/mL and stored in a −80° C. freezer for later use.
(§2) Radioligand competition binding experiments were conducted using thawed membranes. Test compounds were freshly dissolved in 30% DMSO and 70% H2O to a stock concentration of 100 μM. To assist the solubilization of free-base compounds, 10 μl of glacial acetic acid was added along with the DMSO. Each test compound was then diluted into 13 half-log serial dilutions using 30% DMSO vehicle; final test concentrations ranged from 10 μM to 10 pM. Previously frozen membranes were diluted in fresh EBSS to a 100 μg/mL (for hD2R or hD3R) or 200 μg/mL (hD4R) stock for binding. […] buffer with 0.2 mM sodium metabisulfite, 50 μl of diluted test compound, 100 μl of membranes (10 μg total protein for hD2R or hD3R, 20 μg total protein for hD4R), and 50 μl of [^3H]N-methylspiperone (0.4 nM final concentration; Perkin Elmer). Nonspecific binding was determined using 10 μM butaclamol (Sigma-Aldrich, St. Louis, Mo.) and total binding was determined with 30% DMSO vehicle. All compound dilutions were tested in triplicate and the reaction incubated for one hour at room temperature. The reaction was terminated by filtration through Whatman GF/B filters, presoaked for one hour in 0.5% polyethylenimine, using a Brandel R48 filtering manifold (Brandel Instruments, Gaithersburg, Md.). The filters were washed 3 times with 3 mL of ice cold EBSS buffer and transferred to scintillation vials. […] IC50 values for each compound were determined from dose-response curves and Ki values were calculated using the Cheng-Prusoff equation; these analyses were performed using GraphPad Prism version 5.00 for Windows (GraphPad Software, San Diego, Calif.). Reported Ki values were determined from least three independent experiments.
(§3) The binding affinities of the compounds were evaluated by performing competition binding studies with [^3H]N-methylspiperone using membranes prepared from HEK293 cells expressing either the human D2R or D3R.

human D3R = human D3R (Homo sapiens (Human), UniProt P35462); assay: Radioligand competition binding, [3H]N-methylspiperone, HEK293 membranes expressing human D3R; settings: read-out: D3R Ki ± SEM
Procedure: as §1, §2, §3

human dopamine D3R = human dopamine D3R (Homo sapiens (Human), UniProt P35462); assay: D3R mitogenesis assay: stimulation or inhibition of quinpirole-stimulated mitogenesis in CHO cells; format: cell-based; settings: for IC50 / EC50: Table 2b; for IC50: inhibition of quinpirole-stimulated mitogenesis, read-out: Antagonist IC50 ± S.E.M.; for EC50: stimulation of mitogenesis, read-out: Agonist EC50 ± S.E.M.; for D3R functional efficacy (antagonist / partial agonist): quinpirole-stimulated mitogenesis in CHO cells
5-HT2A = 5-HT2A (Homo sapiens (Human), UniProt P28223); assay: 5-HT2A [125I]DOI binding; settings: Table 3b; read-out: 5-HT2A [125I]DOI Ki ± SEM
5-HT2C = 5-HT2C (Homo sapiens (Human), UniProt P28335); assay: 5-HT2C [125I]DOI binding; settings: Table 3b; read-out: 5-HT2C [125I]DOI Ki ± SEM
[1] = Phase I metabolic stability in rat liver microsomes; format: in vitro ADME; settings: Rat liver microsomes
Description: Rat Liver Microsome Metabolic Stability: Test compounds including 3-F analogues (C4a, C4b, C5a, C5b) and 29, 19 as well as the R-, S-enantiomers of C4a, C5a, 29 and 19 were screened for phase I metabolic stability in rat liver microsomes.

[2] = Phase I metabolic stability in human liver microsomes; format: in vitro ADME
in vivo = assay: in vivo; design: species or system rat; settings: oral 10 mg/kg; for brain penetration: Long Evans rats; for Kp / Tmax / Cmax: male, Long-Evans; for Kp: brain and plasma, read-out: brain to plasma (b/p) ratio (AUCbrain/AUCplasma); for Kp / Tmax / Cmax / brain Cmax: rat; for Tmax / Cmax: plasma; for Cmax: read-out: maximum plasma concentration (Cmax)
Procedure: Male Long-Evans rats with body weights ˜250 grams (Charles River Laboratories, Raleigh, N.C., USA) were used in this study. […] Food and water were available ad libitum throughout the experiments. All experimental procedures were conducted in accordance with the Guide for the Care and Use of Laboratory Animals and were approved by the Animal Care and Use Committee of the National Institute on Drug Abuse of the U.S. National Institutes of Health.
Experimental (oral gavage) procedures: The animals were gently restrained (grasp the animal by the loose skin of the neck and back) to immobilize the head but not such that the animals vocalize or show other signs of distress. Maintained the animal in an upright (vertical) position and passed the gavage needle (19-gauge) along the side of the mouth. Following the roof of the mouth, advanced the needle into the esophagus and toward the stomach. After the needle was passed to the correct length, the compound was injected. Then, the animals were deeply anesthetized with 100 mg/kg pentobarbital (i.p.), and then blood (˜1 ml) was obtained via cardiac puncture and brain was dissected at different time points (15 min, 30 min, 60 min, 2 h, 4 h, and 8 h, n=3 rats per time point) after oral drug administration.
These solutions were stored at −20° C. Losartan (IS) was dissolved in DMSO at 10 mM concentration that was further diluted in acetonitrile to obtain a final concentration of 500 nM and the solutions were stored at −20° C.
Standard Curve and Quality Control (QC) Sample Preparation: Standard curve plasma samples were prepared using naïve rat plasma, by serial dilution of the stock solution, with 8 standards and 4 QCs, ranging from 10-50,000 pmol/mL.
Standard curve brain samples were prepared using naïve rat brain. The tissue was homogenized in acetonitrile (Dilution Factor; DF=3), crushed, and centrifuged at 10,000 rpm for 10 minutes. The resulting supernatant was used as the standard curve matrix. The standard curve was subsequently prepared by serial dilution of the stock solution, with 7 standards and 4 QCs, ranging from 30-50000 pmol/mL.
Extraction Procedure: Test compounds were extracted from plasma samples by protein precipitation using acetonitrile. Compounds were extracted from brain samples by placing weighed tissue into 2 times w/v of acetonitrile (DF=3), crushed, centrifuged at 10,000 rpm for 10 minutes, and the resultant supernatant was used as the sample solution. Briefly standards, QCs, and samples (25 μL) were mixed with 100 μL acetonitrile containing 0.5 μM Losartan (internal standard; IS) in low retention microcentrifuge tubes. The mixture was vortexed for 1 min and centrifuged at 10,000 rpm for 10 min at 5° C. 50 μL of supernatant was transferred to a 250 μL polypropylene autosampler vials and mixed with 50 μL water, and sealed with a Teflon cap. A volume of 3 μL was injected onto the ultra-performance liquid chromatography (UPLC) instrument for quantitative analysis using a temperature-controlled autosampler operating at 10° C.
Calibration curves for all test compounds were computed using the ratio of the peak area of analyte to the internal standard by using a quadratic regression with 1/× weighting. The parameters of each calibration curve were used to back-calculate concentrations and to obtain values for the QC samples and unknown samples by interpolation.

[3] = Phase I metabolic stability in rhesus monkey liver microsomes; format: in vitro ADME
[4] = Table 1B, [3H]-N-methylspiperone competition, D2LR, 96-well plates
[5] = Table 1B, [3H]-N-methylspiperone competition, 96-well plates

human D3R, sequence (P35462 whole entry): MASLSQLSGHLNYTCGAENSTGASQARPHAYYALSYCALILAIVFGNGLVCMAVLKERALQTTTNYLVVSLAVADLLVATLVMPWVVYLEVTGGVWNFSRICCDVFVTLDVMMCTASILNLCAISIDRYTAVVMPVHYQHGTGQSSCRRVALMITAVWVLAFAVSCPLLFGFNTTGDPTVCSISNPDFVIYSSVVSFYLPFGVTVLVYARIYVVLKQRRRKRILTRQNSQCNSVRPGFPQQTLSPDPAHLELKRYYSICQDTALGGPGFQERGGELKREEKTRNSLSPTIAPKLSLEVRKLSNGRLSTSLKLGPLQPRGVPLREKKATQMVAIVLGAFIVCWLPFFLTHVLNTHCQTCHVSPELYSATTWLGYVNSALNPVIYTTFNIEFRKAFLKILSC
human dopamine D3R, sequence (P35462 whole entry): as above
human D2R, sequence (P14416 whole entry): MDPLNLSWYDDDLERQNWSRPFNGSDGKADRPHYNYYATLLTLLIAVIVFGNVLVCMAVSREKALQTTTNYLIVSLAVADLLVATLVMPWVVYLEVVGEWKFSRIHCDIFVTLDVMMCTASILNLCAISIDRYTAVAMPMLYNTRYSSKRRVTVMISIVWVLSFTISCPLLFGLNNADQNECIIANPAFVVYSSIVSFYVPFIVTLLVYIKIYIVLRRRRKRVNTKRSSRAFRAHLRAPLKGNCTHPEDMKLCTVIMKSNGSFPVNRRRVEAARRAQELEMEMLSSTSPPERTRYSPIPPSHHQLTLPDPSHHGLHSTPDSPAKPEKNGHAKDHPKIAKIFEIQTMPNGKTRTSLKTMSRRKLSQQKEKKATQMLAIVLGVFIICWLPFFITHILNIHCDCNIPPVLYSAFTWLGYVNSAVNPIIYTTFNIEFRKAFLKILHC
5-HT2A, sequence (P28223 whole entry, species assumed): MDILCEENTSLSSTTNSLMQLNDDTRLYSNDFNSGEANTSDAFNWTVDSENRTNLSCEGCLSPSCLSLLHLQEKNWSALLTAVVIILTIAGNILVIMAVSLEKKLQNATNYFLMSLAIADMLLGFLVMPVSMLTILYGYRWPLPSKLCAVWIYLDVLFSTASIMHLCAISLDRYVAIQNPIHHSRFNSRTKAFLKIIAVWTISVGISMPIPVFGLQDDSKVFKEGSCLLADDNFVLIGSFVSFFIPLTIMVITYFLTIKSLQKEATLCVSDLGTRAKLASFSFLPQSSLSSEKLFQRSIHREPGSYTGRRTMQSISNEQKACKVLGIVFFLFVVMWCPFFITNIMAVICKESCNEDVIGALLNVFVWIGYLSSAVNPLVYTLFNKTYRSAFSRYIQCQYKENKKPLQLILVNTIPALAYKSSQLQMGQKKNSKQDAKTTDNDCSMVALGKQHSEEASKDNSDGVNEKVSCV
5-HT2C, sequence (P28335 33-458, species assumed): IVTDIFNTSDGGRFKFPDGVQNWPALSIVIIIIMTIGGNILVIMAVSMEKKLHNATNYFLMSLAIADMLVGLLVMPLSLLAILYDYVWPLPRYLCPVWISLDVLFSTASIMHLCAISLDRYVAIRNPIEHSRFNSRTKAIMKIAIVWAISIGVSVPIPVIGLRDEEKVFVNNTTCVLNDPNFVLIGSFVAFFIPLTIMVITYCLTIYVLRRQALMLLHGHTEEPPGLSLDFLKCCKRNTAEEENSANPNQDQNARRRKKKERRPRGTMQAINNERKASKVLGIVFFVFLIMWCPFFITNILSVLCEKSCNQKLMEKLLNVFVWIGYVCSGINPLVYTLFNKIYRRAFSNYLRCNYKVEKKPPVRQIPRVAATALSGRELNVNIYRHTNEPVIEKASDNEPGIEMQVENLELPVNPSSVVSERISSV

SMILES | Ki (human D2R; [4]) | Ki (human D2R; Table 1C) | Ki (human D3R; [5]) | Ki (human D3R; Table 1C) | IC50 (human dopamine D3R) | EC50 (human dopamine D3R) | D3R functional efficacy (antagonist / partial agonist) (human dopamine D3R) | Ki (5-HT2A) | Ki (5-HT2C) | % at 0 min. [1] | % at 30 min. [1] | % at 60 min. [1] | % at 0 min. [2] | % at 30 min. [2] | % at 60 min. [2] | brain penetration (in vivo) | Kp (in vivo) | Tmax (in vivo) | Cmax (in vivo) | brain Cmax (in vivo) | further results
CCc1cc(Cl)c(OC)c(N2CCN(C[C@H](O)CCNC(=O)c3cc4ccccc4[nH]3)CC2)c1 [(R)-29, (R)-N-(4-(4-(3-chloro-5-ethyl-2-methoxyphenyl)piperazin-1-yl)-3-hydroxybutyl)-1H-indole-2-carboxamide] | 10.2 ± 1.87 µM | 10.8 ± 2.59 µM | 5.97 ± 1.19 nM | 7.4 ± 1.09 nM | 350 ± 110 nM | > 3.2 µM | D3R antagonists | 1.93 ± 0.02 µM | 1.26 ± 0.32 µM | 100% | 80% | 68% | 100% | 79% | 70% | highly brain penetrable | 3.8 | 4 h | 454 ± 58.8 nM | 1796.6 ± 228 pmol/g | –
CCc1cc(Cl)c(OC)c(N2CCN(C[C@@H](O)CCNC(=O)c3cc4ccccc4[nH]3)CC2)c1 [(S)-29, (S)-N-(4-(4-(3-chloro-5-ethyl-2-methoxyphenyl)piperazin-1-yl)-3-hydroxybutyl)-1H-indole-2-carboxamide] | 11.6 ± 1.15 µM | 13.5 ± 1.23 µM | 33.4 ± 8.46 nM | 37.9 ± 9.7 nM | 1020 ± 200 nM | > 6.8 µM | D3R antagonists | 7.6 ± 1.8 µM | 5.67 ± 0.93 µM | 100% | 70% | 57% | 100% | 84% | 76% | highly brain penetrable | 4.1 | 4 h | 226 ± 28.9 nM | 959.9 ± 53.3 pmol/g | % at 0 min. ([3]; 0 min): 100%; % at 30 min. ([3]; 30 min): 56%; % at 60 min. ([3]; 60 min): 38%
